Data set [1] concerns the target T1, Shc PTB domain (GST-ShcB) binding to activated EGF-R (Homo sapiens, UniProt P29353).
T1 construct: made in house
T1 sequence (P29353 156-339 limits assumed): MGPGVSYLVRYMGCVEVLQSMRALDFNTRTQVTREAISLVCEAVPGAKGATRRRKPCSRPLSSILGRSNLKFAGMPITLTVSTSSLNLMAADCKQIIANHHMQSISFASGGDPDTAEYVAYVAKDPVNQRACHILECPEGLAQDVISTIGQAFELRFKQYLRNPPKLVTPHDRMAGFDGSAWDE
Description: In vitro binding assay: competitive inhibition of EGF receptor binding to GST-ShcB in HER14 lysates. As to conditions: FIG. 10 Panel A; for inhibition of association of Shc and EGF-R: dose response, cyclic peptides, 5 μM. How it is done:
HER14 cells (3T3 cells expressing EGF-R) were starved in 0.5% CS media for 24 hours and stimulated with 100 ng/ml EGF for 5 min. Cells were lysed and mixed with GST, GST-ShcB or GST-R175M beads. Proteins which bound to beads were resolved on SDS-PAGE and detected by anti-phospho-Tyr antibody (4G10) or by anti-EGF-R.
The peptides listed in Table 2 were added to cell lysates at 5 μM, incubated for 30 min., and treated with GST-ShcB beads. Proteins bound to GST-ShcB were detected by anti-phospho-Tyr antibody. […] The experiment was repeated with the peptides dissolved in DMSO (FIG. 9).

A further data set deals with T2, Shc PTB domain (Homo sapiens, UniProt P29353).
T2 construct: containing 1 μM GST-Shc PTB domain fusion protein; made in house
T2 sequence (P29353 156-339 limits assumed): T1 sequence (P29353 156-339 limits assumed)
Description: Surface plasmon resonance competition of GST-Shc PTB domain binding to immobilized polyoma middle T antigen phosphopeptide. As to the method:
Surface plasmon resonance analysis was carried out using a Biacore apparatus (Pharmacia Biosensor) as described previously (Puil et al., 1994). The peptide L-S-L-L-S-N-P-T-p.Y-S-V-M-R-S-K (SEQ ID NO:23) was immobilized to a biosensor chip through injection of a 0.5 mM solution of the phosphopeptide, in 50 mM HEPES, pH 7.5 and 2 M NaCl, across the chip surface previously activated following procedures outlined by the manufacturer. Injection of anti-phosphotyrosine antibody was used to confirm that successful immobilization of the peptide was achieved. Solutions (100 μl) containing 1 μM GST-Shc PTB domain fusion protein and the indicated concentrations of soluble phosphopeptide in 50 mM Na phosphate, pH 7.5, 150 mM NaCl, 0.1 mM EDTA, and 2 mM DTT, were injected across the surface. The amount of bound GST-Shc PTB domain was estimated from the surface plasmon resonance signal at a fixed time following the end of the injection and the percentage bound, relative to injection of GST-Shc PTB domain alone, calculated. The surface was regenerated using 2 M Guanidinium-HCl.

In a further data set the test system is cells. Description: Peptide localization in cells (anti-phospho-Tyr immunofluorescence). Type of data set: cell-based. As to the method: To examine peptide localization, cells were treated with P-1 or P-2 peptide for 4 hours, stained with anti-phospho-Tyr and rhodamine-conjugated antibody, and observed with a confocal microscope. A Z-scan was carried out to make images in each 0.15 μm section from the top of the cells to the bottom. […] Cells treated with P-1 peptide were not stained by anti-phospho-Tyr antibody, confirming the specifity of the immunofluoroscence staining. In a time course analysis, cells were serum-starved for 24 hours, and incubated with peptide (5 μM) for various time periods. Cells were stained by anti-phosphoro-Tyr antibody and analyzed under an immunofluoroscence microscope. Cells treated with P-2 peptide retained phospho-peptide for up to 24 hrs. In a dose response experiment, cells were starved in serum-free medium for 24 hours, cultured with peptide at various concentrations, and stained with anti-phospho-tyrosine antibody (4G10) to detect the peptide containing phospho-tyrosine residue (red) and by Hoechst 33258 for nuclei (blue). P-2 peptide was detected at 0.5 μM and 1 μM in cells .

The mark [2] stands for this setting: peptide concentration inhibiting by 50% binding of 1 μM GST-Shc PTB domain to immobilized polyoma middle T antigen phosphopeptide, read-out: IC 50.

Consider 15 molecules from patent US6028053A, “Peptide inhibitors of a phosphotyrosine-binding domain containing protein” (Mount Sinai Hospital Corporation, priority 1998, dated 2000).

A word on the inhibition: it is how much of the control response was suppressed.

Read-outs that look alike come from different tables or passages of the source. Square brackets hold non-standard residues; d marks the D form. Peptide text beside a SMILES is read from it. pY = N[C@@H](Cc1ccc(OP(=O)(O)O)cc1)C(=O)O

On to `CC[C@H](C)[C@@H]1NC(=O)CNC(=O)[C@@H]2CCCN2C(=O)[C@H](CO)NC(=O)[C@H](Cc2ccccc2)NC(=O)[C@H](Cc2ccc(OP(=O)(O)O)cc2)NC(=O)[C@H](CCC(N)=O)NC(=O)[C@@H]2CCCN2C(=O)[C@H](CC(N)=O)NC(=O)[C@H](CCC(=O)O)NC1=O` [C-1, Cyclo-(IENPQpYFSPG)] (cyclo(ENPQ[pY]FSPGI)), for which the inhibition at 100 µM in data set [1] (100 μM, read-out: inhibition of association of Shc and EGF-R) was around 50%.
Regarding `NC(=O)CC[C@@H]1NC(=O)[C@@H]2CCCN2C(=O)[C@H](CC(N)=O)NC(=O)[C@H](Cc2ccc(OP(=O)(O)O)cc2)NC1=O` [C-3, Cyclo-(NPQpY)] (cyclo(NPQ[pY])), the “inhibition of association of Shc and EGF-R” value in data set [1] was “did not inhibit”.
The same measure, in the same setting: in the case of `NC(=O)CC[C@@H]1NC(=O)[C@@H]2CCCN2C(=O)[C@H](CC(N)=O)NC(=O)CNC(=O)[C@H](Cc2ccc(OP(=O)(O)O)cc2)NC1=O` [C-4, Cyclo-(NPQpYG)] (cyclo(GNPQ[pY])) it was “did not inhibit”; in that of `NC(=O)CC[C@@H]1NC(=O)[C@@H]2CCCN2C(=O)[C@H](CC(N)=O)NC(=O)CNC(=O)CNC(=O)[C@H](Cc2ccc(OP(=O)(O)O)cc2)NC1=O` [C-5, Cyclo-(NPQpYGG)] (cyclo(GGNPQ[pY])), “did not inhibit”.
The molecule `C[C@H](NC(=O)[C@H](C)NC(=O)[C@@H](N)Cc1c[nH]cn1)C(=O)N[C@@H](CCC(=O)O)C(=O)N[C@@H](CC(N)=O)C(=O)N1CCC[C@H]1C(=O)N[C@@H](CCC(N)=O)C(=O)N[C@@H](Cc1ccc(OP(=O)(O)O)cc1)C(=O)N[C@@H](Cc1ccccc1)C(=O)N[C@@H](CO)C(=O)N[C@@H](CC(=O)O)C(=O)O` [H-A-A-E-N-P-Q-P.Y-F-S-D, H-A-A-E-N-P-Q-p.Y-F-S-D] (H-HAAENPQ[pY]FSD-OH) came in with an IC50 on Shc PTB domain of 475 nM.
Still for that read-out and setting: the same measure for `CC[C@H](C)[C@H](NC(=O)[C@H](C)NC(=O)[C@@H](N)Cc1c[nH]cn1)C(=O)N[C@@H](CCC(=O)O)C(=O)N[C@@H](CC(N)=O)C(=O)N1CCC[C@H]1C(=O)N[C@@H](CCC(N)=O)C(=O)N[C@@H](Cc1ccc(OP(=O)(O)O)cc1)C(=O)N[C@@H](Cc1ccccc1)C(=O)N[C@@H](CO)C(=O)N[C@@H](CC(=O)O)C(=O)O` [H-A-I-E-N-P-Q-P.Y-F-S-D, His-Ala-Ile-Glu-Asn-Pro-Gln-P.Tyr-Phe-Ser-Asp] (H-HAIENPQ[pY]FSD-OH): 20 nM.
Turning to `C[C@H](NC(=O)[C@@H](N)Cc1c[nH]cn1)C(=O)N[C@@H](CO)C(=O)N[C@@H](CCC(=O)O)C(=O)N[C@@H](CC(N)=O)C(=O)N1CCC[C@H]1C(=O)N[C@@H](CCC(N)=O)C(=O)N[C@@H](Cc1ccc(OP(=O)(O)O)cc1)C(=O)N[C@@H](Cc1ccccc1)C(=O)N[C@@H](CO)C(=O)N[C@@H](CC(=O)O)C(=O)O` [H-A-S-E-N-P-Q-P.Y-F-S-D, H-A-S-E-N-P-Q-p.Y-F-S-D] (H-HASENPQ[pY]FSD-OH), the IC50 at Shc PTB domain (setting [2]) worked out at 15000 nM.
At Shc PTB domain, `CC[C@H](C)[C@H](NC(=O)[C@@H](N)Cc1c[nH]cn1)C(=O)N[C@@H](C)C(=O)N[C@@H](CCC(=O)O)C(=O)N[C@@H](CC(N)=O)C(=O)N1CCC[C@H]1C(=O)N[C@@H](CCC(N)=O)C(=O)N[C@@H](Cc1ccc(OP(=O)(O)O)cc1)C(=O)N[C@@H](Cc1ccccc1)C(=O)N[C@@H](CO)C(=O)N[C@@H](CC(=O)O)C(=O)O` [H-I-A-E-N-P-Q-P.Y-F-S-D, His-Ile-Ala-Glu-Asn-Pro-Gln-P.Tyr-Phe-Ser-Asp] (H-HIAENPQ[pY]FSD-OH) registered an IC50 of 250 nM.
On to `CC[C@H](C)[C@H](NC(=O)[C@@H](NC(=O)[C@@H](N)Cc1c[nH]cn1)[C@@H](C)CC)C(=O)N[C@@H](CCC(=O)O)C(=O)N[C@@H](C)C(=O)N1CCC[C@H]1C(=O)N[C@@H](CCC(N)=O)C(=O)N[C@@H](Cc1ccc(OP(=O)(O)O)cc1)C(=O)N[C@@H](Cc1ccccc1)C(=O)N[C@@H](CO)C(=O)N[C@@H](CC(=O)O)C(=O)O` [H-I-I-E-A-P-Q-P.Y-F-S-D, His-Ile-Ile-Glu-Ala-Pro-Gln-P.Tyr-Phe-Ser-Asp] (H-HIIEAPQ[pY]FSD-OH), for which, on Shc PTB domain (setting [2]), the IC50 amounted to 80000 nM.
The same measure, in the same setting: in the case of `CC[C@H](C)[C@H](NC(=O)[C@@H](NC(=O)[C@@H](N)Cc1c[nH]cn1)[C@@H](C)CC)C(=O)N[C@@H](CCC(=O)O)C(=O)N[C@@H](CC(N)=O)C(=O)N[C@@H](C)C(=O)N[C@@H](CCC(N)=O)C(=O)N[C@@H](Cc1ccc(OP(=O)(O)O)cc1)C(=O)N[C@@H](Cc1ccccc1)C(=O)N[C@@H](CO)C(=O)N[C@@H](CC(=O)O)C(=O)O` [H-I-I-E-N-A-Q-P.Y-F-S-D, His-Ile-Ile-Glu-Asn-Ala-Gln-P.Tyr-Phe-Ser-Asp] (H-HIIENAQ[pY]FSD-OH) it was 2500 nM.
On Shc PTB domain, `CC[C@H](C)[C@H](NC(=O)[C@@H](NC(=O)[C@@H](N)Cc1c[nH]cn1)[C@@H](C)CC)C(=O)N[C@@H](CCC(=O)O)C(=O)N[C@@H](CC(N)=O)C(=O)N1CCC[C@H]1C(=O)N[C@@H](CCC(N)=O)C(=O)N[C@@H](Cc1ccc(OP(=O)(O)O)cc1)C(=O)N[C@@H](Cc1ccccc1)C(=O)N[C@@H](CO)C(=O)N[C@@H](CC(=O)O)C(=O)O` [H-I-I-E-N-P-Q-P.Y-F-S-D, His-Ile-Ile-Glu-Asn-Pro-Gln-P.Tyr-Phe-Ser-Asp] (H-HIIENPQ[pY]FSD-OH) showed an IC50 of 175 nM.
`CC[C@H](C)[C@H](N)C(=O)N[C@@H](CCC(=O)O)C(=O)N[C@@H](CC(N)=O)C(=O)N1CCC[C@H]1C(=O)N[C@@H](CCC(N)=O)C(=O)N[C@@H](Cc1ccc(OP(=O)(O)O)cc1)C(=O)N[C@@H](Cc1ccccc1)C(=O)N[C@@H](CO)C(=O)N[C@@H](CC(=O)O)C(=O)O` [IENPQpYFSD] (H-IENPQ[pY]FSD-OH) registered an IC50 at Shc PTB domain of 4000 nM.
`CC[C@H](C)[C@H](NC(=O)[C@H](CCCCN)NC(=O)[C@@H](NC(=O)[C@H](CCC(N)=O)NC(=O)[C@@H](N)CCCNC(=N)N)[C@@H](C)CC)C(=O)N[C@@H](Cc1c[nH]c2ccccc12)C(=O)N[C@@H](Cc1ccccc1)C(=O)N[C@@H](CCC(N)=O)C(=O)N[C@@H](CC(N)=O)C(=O)N[C@@H](CCCNC(=N)N)C(=O)N[C@@H](CCCNC(=N)N)C(=O)N[C@@H](CCSC)C(=O)N[C@@H](CCCCN)C(=O)N[C@@H](Cc1c[nH]c2ccccc12)C(=O)N[C@@H](CCCCN)C(=O)N[C@@H](CCCCN)C(=O)N[C@@H](Cc1c[nH]cn1)C(=O)N[C@H](C(=O)N[C@H](C(=O)N[C@@H](CCC(=O)O)C(=O)N[C@@H](CC(N)=O)C(=O)N1CCC[C@H]1C(=O)N[C@@H](CCC(N)=O)C(=O)N[C@@H](Cc1ccc(OP(=O)(O)O)cc1)C(=O)N[C@@H](Cc1ccccc1)C(=O)N[C@@H](CO)C(=O)N[C@@H](CC(=O)O)C(=O)O)[C@@H](C)CC)[C@@H](C)CC` [P-2, RQIKIWFQNRRMKWKK-HIIENPQpYFSD] (H-RQIKIWFQNRRMKWKKHIIENPQ[pY]FSD-OH): the “peptide localization in cells” value with cells (cells treated 4 hours, anti-phospho-Tyr staining, confocal microscope) was “localized in the cytoplasm of cells, and not in the nucleus”. The “detection of peptide in cells by anti-phospho-tyrosine staining” value in the data set with cells (dose response, 0.5 μM and 1 μM (concentrations up to 1 μM)) is given as “detected”. Further, the “retention of phospho-peptide in cells” value with cells (time course, peptide 5 μM, serum-starved cells) is “up to 24 hrs”.
Take `CC[C@H](C)[C@H](NC(=O)[C@H](C)NC(=O)[C@@H](N)Cc1ccc(O)cc1)C(=O)N[C@@H](CO)C(=O)N[C@@H](CC(N)=O)C(=O)N1CCC[C@H]1C(=O)N[C@@H](CCC(=O)O)C(=O)N[C@@H](Cc1ccc(OP(=O)(O)O)cc1)C(=O)N[C@@H](CC(C)C)C(=O)N[C@@H](CO)C(=O)N[C@@H](C)C(=O)O` [Y-A-I-S-N-P-E-P.Y-L-S-A, Tyr-Ala-Ile-Ser-Asn-Pro-Glu-P.Tyr-Leu-Ser-Ala] (H-YAISNPE[pY]LSA-OH): the IC50 at Shc PTB domain (setting [2]) amounted to 90 nM.
With `CC(C)C[C@H](NC(=O)[C@H](Cc1ccc(OP(=O)(O)O)cc1)NC(=O)[C@H](CCC(=O)O)NC(=O)[C@@H]1CCCN1C(=O)[C@H](CC(N)=O)NC(=O)[C@H](CO)NC(=O)[C@H](CO)NC(=O)[C@H](C)NC(=O)[C@@H](N)Cc1ccc(O)cc1)C(=O)N[C@@H](CO)C(=O)N[C@@H](C)C(=O)O` [Y-A-S-S-N-P-E-P.Y-L-S-A, Y-A-S-S-N-P-E-p.Y-L-S-A] (H-YASSNPE[pY]LSA-OH), the IC50 on Shc PTB domain (setting [2]) is 7000 nM.
